The NIST ThermoML archive (doi:10.1016/j.jct.2014.03.027)
Numbers after ± are expanded uncertainties.

Experiment: molar enthalpy of vaporization or sublimation
Details: 298.15 K, Static calorimetry

## COc1ccccc1C(C)=O [2'-methoxyacetophenone]
Liquid
  molar enthalpy: 15.9 ± 0.287 kcal/mol

## COc1cccc(C(C)=O)c1 [3'-methoxyacetophenone]
Liquid
  molar enthalpy: 16.2 ± 0.287 kcal/mol

## COc1ccc(C(C)=O)cc1 [4'-methoxyacetophenone]
Crystal
  molar enthalpy: 21 ± 0.335 kcal/mol
